From patent US9271952B2, “Compositions and methods for treating nephropathy” (Complexa, Inc., priority 2011, dated 2016)

Legend:
B6129S2/J mice = assay: Cisplatin-induced renal injury in mice, posttreatment with OA-NO2; type: in vivo
Description: The control group also received an i.p. injection of the equivalent amount of ethanol at the same frequencies. At the end of the experiments, under isoflurane anesthesia, blood was withdrawn from the vena cava using 1 cc insulin syringe and kidneys were harvested for analysis of morphology and gene expression.

[1] = test system: human proximal tubular cells (HK2); assay: Cisplatin-induced caspase activity in cultured human proximal tubular cells (HK2); type: cell-based
[2] = cisplatin 20 mg/kg i.p. alone, mice
[3] = cisplatin-treated mice, OA-NO2 400 mg/kg i.p. at 6-hour intervals for 48 hours

For N.N.[Cl][Pt][Cl] [cisplatin, reference compound], the activity of caspase (B6129S2/J mice; [2]) was “increased”, the “kidney TBARS” value (B6129S2/J mice; [2]) was “increased” and the “kidney expression of NADPH oxidase subunits p47phox and gp91phox” value (B6129S2/J mice; [2]) was “increased”. The “increase in caspase activity” value ([1]; HK2 cells, exposure to 1.0 μM cisplatin) was 3 fold.
For “9- or 10-nitro octadecenoic acid [OA-NO2]”, the “MPO plasma level (marker of neutrophil infiltration)” value (B6129S2/J mice; [3]) was “attenuated or completely corrected”, the “activity of caspase (index of apoptosis)” value (B6129S2/J mice; [3]) was “attenuated or completely corrected” and the “kidney expression of NADPH oxidase subunits p47phox and gp91phox” value (B6129S2/J mice; [3]) was “attenuated or completely corrected”. For the same compound, the “kidney thiobarbituric acid-reactive substances (TBARS, index of oxidative stress)” value (B6129S2/J mice; [3]) was “attenuated or completely corrected”, the “renal histological abnormalities (distortion of renal morphology, dilation of renal tubules, protein cast; pathological changes)” value (B6129S2/J mice; mice given cisplatin 20 mg/kg i.p., OA-NO2 400 mg/kg i.p. at 6-hour intervals for 48 hours) was “markedly attenuated” and the “renal dysfunction as indicated by a rise in plasma BUN (functional changes)” value (B6129S2/J mice; mice given cisplatin 20 mg/kg i.p., OA-NO2 400 mg/kg i.p. from 20 minutes after, at 6-hour intervals for 48 hours) was “markedly attenuated”. The cisplatin-induced caspase activity ([1]; HK2 cells exposed to 1.0 μM cisplatin, with OA-NO2) was “almost completely normalized”.
